Patent publication US20090047221A1 (NIPRI LIMITED, priority 2004, published 2009)
pIC50: −log10 of the molar value.

Legend:
Assay type in all cases: cell-based
[1] = tested on: MDA-MB-468; experiment: MTT assay (anti-proliferative activity); conditions: 96 h continual exposure, read-out: IC 50 MDA-MB-468
[2] = tested on: MCF-7; experiment: MTT assay (anti-proliferative activity); conditions: 96 h continual exposure, read-out: IC 50 MCF-7
[3] = tested on: MalMe3M; experiment: MTT assay (anti-proliferative activity); conditions: 96 h continual exposure, read-out: IC 50 MalMe3M
[4] = tested on: SkMel28; experiment: MTT assay (anti-proliferative activity); conditions: 96 h continual exposure, read-out: IC 50 SkMel28
[5] = tested on: breast cancer (MDA-MB-468 and MCF-7 cell lines) and melanoma cell lines (MalMe3, SkMe128); experiment: Cell cycle analysis by flow cytometry (propidium iodide); apoptosis as cells in sub G0/G1 (pre G0) peak; conditions: following treatment with IC70 concentration of compound
Method: Assessment of cell cycle analysis was performed using propidium iodide staining of cells and subsequent analysis on a Beckton Dickinson flow cytometer. […] The following day the medium was removed and replaced with 5 ml medium per flask containing the appropriate drug concentrations to be tested. 40 mg/ml stock drug solutions in DMSO were stores at −20° C. and on the day off drug treatment working solutions of 4 mg/ml were prepared in medium from which the final drug dilutions were prepared. Cells were maintained in an incubator (37° C., 5% CO2) for up to 96 h post treatment. After 24, 48, 72 or 96 h time points the medium from each flask was collected, stored on ice, and the remaining cells in the flasks were trypsinised by aiding 1 ml trypsin-EDTA solution to each flask. Cells were replaced into the incubator for 10 min to allow them to detach from the plastic plate. The cells in each flask were collected by adding the appropriate medium removed from each flask back to the corresponding flask and then placing medium containing both the attached and floating cells into a 15 ml tube. Cells were centrifuged at 4° C. for 5 min at 1500 rpm and the supernatant removed from each tube. The remaining cells were washed twice in ice cold PBS and then fixed in ice cold methanol overnight at −20° C. On the day of analysis of cells each tube was centrifuged at 4° C. for 5 min at 1500 rpm and the methanol removed and the cells washed twice in ice cold PBS. 20 μl propidium iodide solution (1 mg/ml) and 20 μl RNase A (10 mg/ml solution) were added to 1 ml PBS per tube and the cells were incubated for 30 min at 37° C. Cells were analysed on the flow cytometer and cell cycle changes were assessed.

[6] = tested on: H23; experiment: MTT assay (anti-proliferative activity)
Description: (§1) The MTT assay was used initially to determine the anti-proliferative activity of the test compounds. In the MTT assay a yellow thiazolyl blue tetrazolium bromide salt (MTT) is reduced, in metabolically active cells, to form insoluble purple formazan crystals which are solubilised by the addition of dimethyl sulphoxide (DMSO). Absorbance readings can then be determined spectrophotometrically and a relationship established between control untreated cells and drug treated cells enabling the quantification of anti-proliferative changes as a result of drug treatment (Mosmann, 1983).
(§2) Wells containing medium only were used as blanks. Following the attachment period, cells were treated with appropriate drug concentrations (20 μl added per well). 40 mg/ml stock drug solutions, in DMSO, were stored at −20° C. and on the day of drug treatment working solutions of 4 mg/ml were prepared in medium which was further diluted to achieve final drug dilution volumes of 20 μl. Initial screening was determined over a concentration range of 1-200 μg/ml. For potent compounds the assay was repeated over a narrower concentration range to determine accurate IC50 values. Cells were exposed to drug for 96 h continual exposure (37° C., 5% CO2). Following the 96 h incubation, 50 μl MTT solution (1 g MTT/500 ml PBS) was added per well and the plates were further incubated for 4 h (37° C., 5% CO2). After incubation the MTT and medium was removed from the wells and 100 μl DMSO added per well. Plates were agitated on an orbital mixer platform (Stuart Scientific) for 10 minutes. Absorbance was measured at 570 nm on a Biotrak II (Amersham Bioscience) plate reader. IC50 values were calculated comparing control and drug treated cells.

[7] = tested on: HT29; experiment: MTT assay (anti-proliferative activity)
Description: as §1, §2

[8] = tested on: HCT+/+; experiment: MTT assay (anti-proliferative activity)
Description: as §1, §2

[9] = tested on: RKO; experiment: MTT assay (anti-proliferative activity)
Description: as §1, §2

[10] = tested on: ZR-75-1; experiment: MTT assay (anti-proliferative activity)
Description: as §1, §2

[11] = tested on: LNCAP; experiment: MTT assay (anti-proliferative activity)
Description: as §1, §2

[12] = tested on: PC3; experiment: MTT assay (anti-proliferative activity)
Description: as §1, §2

[13] = tested on: HCT−/−; experiment: MTT assay (anti-proliferative activity)
Description: as §1, §2

[14] = tested on: PNT2; experiment: MTT assay (anti-proliferative activity)
Description: as §1, §2

pIC50 [1] | pIC50 [2] | pIC50 [7] | pIC50 [8] | pIC50 [11] | pIC50 [12] | pIC50 [13] | SMILES | pIC50 [3] | pIC50 [4] | % Cells in Pre G0 phase of Cell Cycle [5] | pIC50 [6] | pIC50 [9] | pIC50 [10] | pIC50 [14]
4.89 | 4.36 | – | – | – | – | – | CC(C)CC(NC(=O)c1ccc2c(c1O)C(=O)OC(C)C2)C(=O)OC(C)(C)C (mixture of isomers) [ALM-55, Leucine Tert-Butyl Ester Amide] | 4.64 | 4.10 | 3.4% | – | – | – | –
5.37 | 5.64 | 4.73 | 4.67 | 4.97 | 5.02 | 4.37 | CCCCC/C=C\C/C=C\C/C=C\CCCCCOC(=O)c1ccc2c(c1O)C(=O)OC(C)C2 (racemic) [ALM-43, γ-Linolenyl Ester] | 4.63 | 4.67 | 11.8% | 5.68 | 4.97 | 5.19 | 5.28
5.48 | 4.58 | – | – | – | – | – | CCCCCCNC(=O)c1ccc2c(c1O)C(=O)OC(C)C2 (racemic) [ALM-49, Hexyl Amide] | 4.18 | 3.98 | 14.1% | – | – | – | –

SMILES | pIC50 [1] | pIC50 [2] | pIC50 [7] | pIC50 [8] | pIC50 [11] | pIC50 [12] | pIC50 [13] | pIC50 [3] | pIC50 [4] | % Cells in Pre G0 phase of Cell Cycle [5] | pIC50 [6] | pIC50 [9] | pIC50 [10] | pIC50 [14]
CC1(C)Cc2ccc(C(=O)N[C@@H](Cc3ccccc3)C(=O)O)c(O)c2C(=O)O1 [ALM-74, L-Phenyl Alanine Amide of Compound ALM-73] | 5.74 | 5.66 | – | – | – | – | – | 5.11 | 4.93 | 34.4% | – | – | – | –
